Results from patent publication US20120058989A1, “ANTIBACTERIAL FLUOROQUINOLONE ANALOGS” (Achaogen, Inc., priority 2008, published 2012).
≈ marks a conversion by molar mass, not a printed value.

How the values were obtained:
Assay in all cases: MIC, CLSI broth microdilution
Type in all cases: cell-based
[1] = tested on: P. aeruginosa APAE001 (Fluoroquinolone-susceptible, ATCC27853); settings: for MIC: Pseudomonas aeruginosa, Table 2, read-out: MIC APAE 001; for MIC APAE 001: Table 2
Experimental: (§1) Minimum inhibitory concentrations (MIC) were determined by reference Clinical and Laboratory Standards Institute (CLSI) broth microdilution methods per M7-A7 [2006]. Quality control ranges utilizing E. coli ATCC 25922, P. aeruginosa ATCC 27853 and S. aureus ATCC 29213, and interpretive criteria for comparator agents were as published in CLSI M100-S17 [2007]. Briefly, serial two-fold dilutions of the test compounds were prepared at 2× concentration in Mueller Hinton Broth. The compound dilutions were mixed in 96-well assay plates in a 1:1 ratio with bacterial inoculum. The inoculum was prepared by suspension of a colony from an agar plate that was prepared the previous day. Bacteria were suspended in sterile saline and added to each assay plate to obtain a final concentration of 5×10^5 CFU/mL. The plates were incubated at 35° C. for 20 hours in ambient air.

[2] = tested on: P. aeruginosa APAE054 (Fluoroquinolone-resistant); settings: for MIC: Pseudomonas aeruginosa, Table 2, read-out: MIC APAE 054; for MIC APAE 054: Table 2
Experimental: as §1

[3] = tested on: S. aureus ASAU001 (Fluoroquinolone-susceptible, ATCC29213); settings: for MIC: Staphylococcus aureus, Table 2, read-out: MIC ASAU 001; for MIC ASAU 001: Table 2
Experimental: as §1

[4] = tested on: S. pneumoniae ASPN001 (Fluoroquinolone-susceptible, ATCC49619); settings: for MIC: Streptococcus pneumoniae, Table 2, read-out: MIC ASPN 001; for MIC ASPN 001: Table 2
Experimental: as §1

[5] = tested on: E. coli AECO066 (Fluoroquinolone-resistant); settings: for MIC: Escherichia coli, Table 2, read-out: MIC AECO 066; for MIC AECO 066: Table 2
Experimental: as §1

[6] = tested on: S. aureus ASAU1031 (Fluoroquinolone-resistant); settings: for MIC: Staphylococcus aureus, Table 2, read-out: MIC ASAU 1031; for MIC ASAU 1031: Table 2
Experimental: as §1

[7] = tested on: A. baumannii AABA1065 (Fluoroquinolone-susceptible); settings: for MIC: Acinetobacter baumannii, Table 2, read-out: MIC AABA 1065; for MIC AABA 1065: Table 2
Experimental: as §1

[8] = tested on: E. coli AECO001 (Fluoroquinolone susceptible, ATCC25922); settings: Table 2, 35° C., 20 hours; for MIC: Escherichia coli, read-out: MIC AECO 001
Experimental: as §1

[9] = tested on: S. pneumoniae ASPN1027 (Fluoroquinolone-resistant); settings: for MIC: Streptococcus pneumoniae, Table 2, read-out: MIC ASPN 1027; for MIC ASPN 1027: Table 2
Experimental: as §1

[10] = tested on: A. baumannii AABA1009 (Fluoroquinolone-resistant); settings: for MIC: Acinetobacter baumannii, Table 2, read-out: MIC AABA 1009; for MIC AABA 1009: Table 2
Experimental: as §1

SMILES | MIC [1] | MIC [2] | MIC [3] | MIC [4] | MIC [5] | MIC [6] | MIC [7] | MIC [8] | MIC [9] | MIC [10] | MIC APAE 001 [1] | MIC APAE 054 [2] | MIC ASAU 001 [3] | MIC ASPN 001 [4] | MIC AECO 066 [5] | MIC ASAU 1031 [6] | MIC AABA 1065 [7] | MIC AECO 001 [8] | MIC ASPN 1027 [9] | MIC AABA 1009 [10]
O=C(O)c1cn(C2CC2)c2c3c(c(F)cc2c1=O)N1CCCC1CCO3 (stereo not shown) [32/1] | > 8 µg/mL | > 8 µg/mL | ≤ 1 µg/mL | 1 to 8 µg/mL (≈ 2.79 to 22.3 µM) | > 8 µg/mL | > 8 µg/mL | 1 to 8 µg/mL (≈ 2.79 to 22.3 µM) | ≤ 1 µg/mL | > 8 µg/mL | > 8 µg/mL |  |  |  |  |  |  |  |  |  | 
O=C(O)c1cn(C2CC2)c2c3c(c(F)cc2c1=O)N1CCCC1CCC3 (stereo not shown) [27/7, 4-Cyclopropyl-12-fluoro-1-oxo-4,5,6,7,7a,8,9,10-octahydro-1H-pyrrolo[1′,2′:1,7]azepino[2,3-h]quinoline-2-carboxylic acid] |  |  |  |  |  |  |  |  |  |  | C (MIC's of greater than 8.0 μg/mL = C) | C (MIC's of greater than 8.0 μg/mL = C) | A (MIC's of 1.0 μg/mL or less = A) | B (MIC's of greater than 1.0 μg/mL to 8.0 μg/mL = B) | C (MIC's of greater than 8.0 μg/mL = C) | B (MIC's of greater than 1.0 μg/mL to 8.0 μg/mL = B) | C (MIC's of greater than 8.0 μg/mL = C) | B (MIC's of greater than 1.0 μg/mL to 8.0 μg/mL = B) | C (MIC's of greater than 8.0 μg/mL = C) | C (MIC's of greater than 8.0 μg/mL = C)
O=C1C[C@H]2CC=Cc3c(c(F)cc4c(=O)c(C(=O)O)cn(C5CC5)c34)N2C1 [18/10, (7aR)-4-Cyclopropyl-12-fluoro-1,9-dioxo-4,7,7a,8,9,10-hexahydro-1H-pyrrolo[1′,2′:1,7]azepino[2,3-h]quino-line-2-carboxylic acid] |  |  |  |  |  |  |  |  |  |  | C (MIC's of greater than 8.0 μg/mL = C) | C (MIC's of greater than 8.0 μg/mL = C) | A (MIC's of 1.0 μg/mL or less = A) | B (MIC's of greater than 1.0 μg/mL to 8.0 μg/mL = B) | C (MIC's of greater than 8.0 μg/mL = C) | C (MIC's of greater than 8.0 μg/mL = C) | C (MIC's of greater than 8.0 μg/mL = C) | B (MIC's of greater than 1.0 μg/mL to 8.0 μg/mL = B) | C (MIC's of greater than 8.0 μg/mL = C) | C (MIC's of greater than 8.0 μg/mL = C)
CN1Cc2c(c(F)cc3c(=O)c(C(=O)O)cn(C4CC4)c23)N2CCCC2C1.O=C(O)C(F)(F)F (stereo not shown) [15/3, 13-Cyclopropyl-8-fluoro-2-methyl-10-oxo-2,3,3a,4,5,6,10,13-octahydro-1H-pyrrolo[2′,1′:3,4][1,4]diazepino[5,6-h]quinoline-11-carboxylic acid trifluoroacetate] |  |  |  |  |  |  |  |  |  |  | C (MIC's of greater than 8.0 μg/mL = C) | C (MIC's of greater than 8.0 μg/mL = C) | A (MIC's of 1.0 μg/mL or less = A) | B (MIC's of greater than 1.0 μg/mL to 8.0 μg/mL = B) | C (MIC's of greater than 8.0 μg/mL = C) | C (MIC's of greater than 8.0 μg/mL = C) | A (MIC's of 1.0 μg/mL or less = A) | A (MIC's of 1.0 μg/mL or less = A) | C (MIC's of greater than 8.0 μg/mL = C) | C (MIC's of greater than 8.0 μg/mL = C)
N[C@H]1CC2CC=Cc3c(c(F)cc4c(=O)c(C(=O)O)cn(C5CC5)c34)N2C1 (stereo partly shown) [32 /5] | ≤ 1 µg/mL | > 8 µg/mL | ≤ 1 µg/mL | ≤ 1 µg/mL | > 8 µg/mL | 1 to 8 µg/mL (≈ 2.71 to 21.7 µM) | ≤ 1 µg/mL | ≤ 1 µg/mL | 1 to 8 µg/mL (≈ 2.71 to 21.7 µM) | > 8 µg/mL |  |  |  |  |  |  |  |  |  | 
O=C1Cc2c(c(F)cc3c(=O)c(C(=O)O)cn(C4CC4)c23)N2CCCC2C1 (stereo not shown) [27/10, 4-Cyclopropyl-12-fluoro-1,6-dioxo-4,5,6,7,7a,8,9,10-octahydro-1H-pyrrolo[1′,2′:1,7]azepino[2,3-h]quinoline-2-carboxylic acid] |  |  |  |  |  |  |  |  |  |  | C (MIC's of greater than 8.0 μg/mL = C) | C (MIC's of greater than 8.0 μg/mL = C) | B (MIC's of greater than 1.0 μg/mL to 8.0 μg/mL = B) | C (MIC's of greater than 8.0 μg/mL = C) | C (MIC's of greater than 8.0 μg/mL = C) | C (MIC's of greater than 8.0 μg/mL = C) | B (MIC's of greater than 1.0 μg/mL to 8.0 μg/mL = B) | B (MIC's of greater than 1.0 μg/mL to 8.0 μg/mL = B) | C (MIC's of greater than 8.0 μg/mL = C) | C (MIC's of greater than 8.0 μg/mL = C)
O=C(O)c1cn(C2CC2)c2c3c(c(F)cc2c1=O)N1CCC[C@H]1CCC3 [1/10] | > 8 µg/mL | > 8 µg/mL | ≤ 1 µg/mL | ≤ 1 µg/mL | > 8 µg/mL | 1 to 8 µg/mL (≈ 2.81 to 22.4 µM) | 1 to 8 µg/mL (≈ 2.81 to 22.4 µM) | ≤ 1 µg/mL | > 8 µg/mL | > 8 µg/mL |  |  |  |  |  |  |  |  |  | 
O=C(O)c1cn(C2CC2)c2c3c(c(F)cc2c1=O)N1CCCC1CN=C3 (stereo not shown) [12/4, 13-Cyclopropyl-8-fluoro-10-oxo-3a,4,5,6,10,13-hexahydro-3H-pyrrolo[2′,1′:3,4][1,4]diazepino[5,6-h]quinoline-11-carboxylic acid] |  |  |  |  |  |  |  |  |  |  | B (MIC's of greater than 1.0 μg/mL to 8.0 μg/mL = B) | C (MIC's of greater than 8.0 μg/mL = C) | A (MIC's of 1.0 μg/mL or less = A) | B (MIC's of greater than 1.0 μg/mL to 8.0 μg/mL = B) | C (MIC's of greater than 8.0 μg/mL = C) | C (MIC's of greater than 8.0 μg/mL = C) | C (MIC's of greater than 8.0 μg/mL = C) | A (MIC's of 1.0 μg/mL or less = A) | C (MIC's of greater than 8.0 μg/mL = C) | C (MIC's of greater than 8.0 μg/mL = C)
CO/N=C1\CN(c2nc3c(cc2F)c(=O)c(C(=O)O)cn3C2CC2)CC1CN (stereo not shown) [Gemifloxacin, reference compound] | ≤ 1 µg/mL | > 8 µg/mL | ≤ 1 µg/mL | ≤ 1 µg/mL | > 8 µg/mL | > 8 µg/mL | ≤ 1 µg/mL | ≤ 1 µg/mL | 1 to 8 µg/mL (≈ 2.57 to 20.5 µM) | > 8 µg/mL |  |  |  |  |  |  |  |  |  | 
O=C(O)c1cn(C2CC2)c2c3c(c(F)cc2c1=O)N1CCCC1CS(=O)(=O)C3 (stereo not shown) [8/12, 13-Cyclopropyl-8-fluoro-10-oxo-3a,4,5,6,10,13-hexahydro-1H,3H-pyrrolo[2′,1′:3,4][1,4]thiazepino[5,6-h]quinoline-11-carboxylic acid 2,2-dioxide] |  |  |  |  |  |  |  |  |  |  | C (MIC's of greater than 8.0 μg/mL = C) | C (MIC's of greater than 8.0 μg/mL = C) | B (MIC's of greater than 1.0 μg/mL to 8.0 μg/mL = B) | C (MIC's of greater than 8.0 μg/mL = C) | C (MIC's of greater than 8.0 μg/mL = C) | C (MIC's of greater than 8.0 μg/mL = C) | C (MIC's of greater than 8.0 μg/mL = C) | C (MIC's of greater than 8.0 μg/mL = C) | C (MIC's of greater than 8.0 μg/mL = C) | C (MIC's of greater than 8.0 μg/mL = C)
